# Assay results: patent US9987276B2 (Celgene CAR LLC, priority 2008, dated 2018)
# Read-outs that look alike come from different tables or passages of the source.
# Tests used:
# EGFR-WT = EGFR-WT (Homo sapiens (Human), UniProt P00533); test: Omnia assay for potency assessment against EGFR (WT)
# BTK = BTK (Homo sapiens (Human), UniProt Q06187); test: Omnia assay for potency assessment against BTK; format: biochemical; conditions: [BTK]=5 nM, Omnia assay; read-out: BTK Inhibition (IC50)
# Experimental: The modified BTK-optimized reagent conditions for the above protocol are:
# [BTK]=5 nM, [ATP]=[…], [Y5-Sox]=[…] (ATP KMapp˜[…]).
# [1] = read-out: EGFR (wild type inhibition), EGFR wild type
# Sequence of EGFR-WT (P00533 668-1210): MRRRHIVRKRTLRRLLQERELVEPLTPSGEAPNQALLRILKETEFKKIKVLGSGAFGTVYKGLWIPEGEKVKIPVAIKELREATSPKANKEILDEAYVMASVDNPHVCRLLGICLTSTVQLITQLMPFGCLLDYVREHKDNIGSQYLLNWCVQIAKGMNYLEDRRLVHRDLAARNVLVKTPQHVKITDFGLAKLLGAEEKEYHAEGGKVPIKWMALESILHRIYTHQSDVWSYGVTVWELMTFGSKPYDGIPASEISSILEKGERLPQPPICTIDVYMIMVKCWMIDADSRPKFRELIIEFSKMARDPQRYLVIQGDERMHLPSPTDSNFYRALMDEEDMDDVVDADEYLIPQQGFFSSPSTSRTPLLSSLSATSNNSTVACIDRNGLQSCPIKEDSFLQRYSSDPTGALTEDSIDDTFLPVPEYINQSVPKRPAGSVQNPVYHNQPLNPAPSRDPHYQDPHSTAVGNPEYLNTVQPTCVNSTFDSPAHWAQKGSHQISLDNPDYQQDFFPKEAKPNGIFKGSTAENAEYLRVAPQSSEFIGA
# Sequence of BTK (Q06187 whole entry): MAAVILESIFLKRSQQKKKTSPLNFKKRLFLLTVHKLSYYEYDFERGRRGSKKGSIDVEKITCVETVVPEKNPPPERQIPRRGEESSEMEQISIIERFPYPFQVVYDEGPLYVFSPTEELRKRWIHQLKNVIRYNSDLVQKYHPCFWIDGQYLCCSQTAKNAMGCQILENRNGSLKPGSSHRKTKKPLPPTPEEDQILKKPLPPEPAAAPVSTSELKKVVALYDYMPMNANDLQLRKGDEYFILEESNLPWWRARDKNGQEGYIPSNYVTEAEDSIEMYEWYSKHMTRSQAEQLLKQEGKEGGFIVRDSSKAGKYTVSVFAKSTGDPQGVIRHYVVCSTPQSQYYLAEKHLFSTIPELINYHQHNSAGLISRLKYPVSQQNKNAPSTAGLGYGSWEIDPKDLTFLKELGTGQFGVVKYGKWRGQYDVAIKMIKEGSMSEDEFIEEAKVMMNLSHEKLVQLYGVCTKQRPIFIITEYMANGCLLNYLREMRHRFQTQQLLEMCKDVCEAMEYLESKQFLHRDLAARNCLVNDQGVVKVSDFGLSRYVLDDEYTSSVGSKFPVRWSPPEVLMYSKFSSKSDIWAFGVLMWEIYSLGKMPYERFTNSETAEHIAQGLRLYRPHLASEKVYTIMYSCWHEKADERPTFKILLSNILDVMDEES
Structure (SMILES),IC50 (EGFR-WT; [1]) [nM],IC50 (BTK) [nM],IC50 (EGFR-WT) [nM]
"C=CC(=O)N1CCC[C@@H](Sc2nc(Nc3cccc(OC)c3)ncc2F)C1 [Compound I-137, (R)-1-(3-(5-fluoro-2-(3-methoxyphenylamino)pyrimidin-4-ylthio)piperidin-1-yl)prop-2-en-1-one]",> 10000,100 to 1000,–
"C=CC(=O)N1CCC[C@H](Oc2nc(Nc3cccc(OC)c3)ncc2F)C1 [Compound I-179, (S)-1-(3-(5-fluoro-2-(3-methoxyphenylamino)pyrimidin-4-yloxy)piperidin-1-yl)prop-2-en-1-one]",–,100 to 1000,> 10000
"C=CC(=O)N1CC(Nc2nc(Nc3ccc(OC)nc3)ncc2C(C)=O)C1 [Compound I-187, 1-{3-[5-Acetyl-2-(6-methoxy-pyridin-3-ylamino)-pyrimidin-4-ylamino]-azetidin-1-yl}-propenone]",–,10 to 100,100 to 1000
"C=CC(=O)N1CCC[C@H](Oc2nc(Nc3ccc(OC)nc3)ncc2F)C1 [Compound I-193, (S)-1-(3-(5-fluoro-2-(6-methoxypyridin-3-ylamino)pyrimidin-4-yloxy)piperidin-1-yl)prop-2-en-1-one]",1000 to 10000,100 to 1000,–
"C=CC(=O)N1CCC[C@H](Nc2nc(Nc3cccc(OC)c3)ncc2F)C1 [Compound I-196, (S)-1-(3-(5-fluoro-2-(3-methoxyphenylamino)pyrimidin-4-ylamino)piperidin-1-yl)prop-2-en-1-one]",1000 to 10000,10 to 100,–
"C=CC(=O)N1CCC(Nc2nc(Nc3ccc(OC)nc3)ncc2F)C1 (centres unmarked) [Compound I-203, 1-(3-(5-fluoro-2-(6-methoxypyridin-3-ylamino)pyrimidin-4-ylamino)pyrrolidin-1-yl)prop-2-en-1-one]",–,10 to 100,100 to 1000
"C=CC(=O)NCc1cccc(Nc2nc(Nc3ccccc3)ncc2C)c1 [Compound I-205, N-(3-(5-methyl-2-(phenylamino)pyrimidin-4-ylamino)benzyl)acrylamide]",–,10 to 100,10 to 100
"CC(C)=CC(=O)c1ccc(Nc2nc(Nc3ccccc3)ncc2F)cc1 [Compound I-206, 1-(4-(5-fluoro-2-(phenylamino)pyrimidin-4-ylamino)phenyl)-3-methylbut-2-en-1-one]",1000 to 10000,> 10000,–
"C#CCOc1cccc(Nc2ncc(F)c(Nc3cccc(C(=O)C=C(C)C)c3)n2)c1 [Compound I-211, 1-(3-(5-fluoro-2-(3-(prop-2-ynyloxy)phenylamino)pyrimidin-4-ylamino)phenyl)-3-methylbut-2-en-1-one]",1000 to 10000,1000 to 10000,–
C=CC(=O)Nc1cccc(Nc2ncc(F)c(Oc3ccc(Oc4ccccc4)cc3)n2)c1 [Compound I-212],1000 to 10000,1000 to 10000,–
"C=CC(=O)Nc1ccc(Nc2nc(Nc3cncc(OC)c3)ncc2C(F)(F)F)cc1 [Compound I-214, N-(4-(5-trifluoromethyl-2-(5-methoxypyridin-3-ylamino)pyrimidin-4-ylamino)phenyl)acrylamide]",–,10 to 100,100 to 1000
"C=CC(=O)Nc1cccc(Nc2nc(Nc3ccccc3)ncc2C(=O)NC2CC2)c1 [Compound I-221, 4-(3-acrylamidophenylamino)-N-cyclopropyl-2-(phenylamino)pyrimidine-5-carboxamide]",–,10 to 100,10 to 100
"CC(C)=CC(=O)c1cccc(Nc2nc(Nc3cccc(OC(F)(F)F)c3)ncc2F)c1 [Compound I-223, 1-(3-(5-fluoro-2-(3-(trifluoromethoxy)phenylamino)pyrimidin-4-ylamino)phenyl)-3-methylbut-2-en-1-one]",1000 to 10000,> 10000,–
"CC(C)=CC(=O)c1cccc(Nc2nc(Nc3cccc(S(N)(=O)=O)c3)ncc2C)c1 [Compound I-224, 1-(3-(5-methyl-2-(3-aminosulfonylphenylamino)pyrimidin-4-ylamino)phenyl)-3-methylbut-2-en-1-one]",–,10 to 100,100 to 1000
"CC(C)=CC(=O)c1cccc(Nc2nc(Nc3ccccc3)ncc2C)c1 [Compound I-232, 3-methyl-1-(3-(5-methyl-2-(phenylamino)pyrimidin-4-ylamino)phenyl)but-2-en-1-one]",1000 to 10000,10 to 100,–
"C=CC(=O)Nc1cccc(Nc2nc(Nc3cccnc3)ncc2F)c1 [Compound I-234, N-(3-(5-fluoro-2-(pyridin-3-ylamino)pyrimidin-4-ylamino)phenyl)acrylamide]",> 10000,1000 to 10000,–
"C=CC(=O)Nc1ccc(Nc2nc(Nc3cccc(OC)c3)ncc2C(F)(F)F)cc1 [Compound I-236, N-(4-(5-trifluoromethyl-2-(3-methoxyphenylamino)pyrimidin-4-ylamino)phenyl)acrylamide]",1000 to 10000,10 to 100,–
"C=CC(=O)Nc1cccc(Nc2nc(NC3CCCN(C(C)=O)C3)ncc2F)c1 (centres unmarked) [Compound I-238, N-(3-(2-(1-acetylpiperidin-3-ylamino)-5-fluoropyrimidin-4-ylamino)phenyl)acrylamide]",> 10000,1000 to 10000,–

# Next, values leading:
IC50 (EGFR-WT; [1]) [nM],IC50 (BTK) [nM],IC50 (EGFR-WT) [nM],Structure (SMILES)
< 10,< 10,–,"Cc1cccc(Nc2nc(Nc3cccc(NC(=O)/C=C/CN4CC[C@@H](O)C4)c3)ncc2F)c1 [Compound I-104, (R,E)-N-(3-(5-fluoro-4-(m-tolylamino)pyrimidin-2-ylamino)phenyl)-4-(3-hydroxypyrrolidin-1-yl)but-2-enamide]"
< 10,< 10,–,"C=CC(=O)Nc1cccc(Nc2nc(Nc3ccc(OCCOC)cc3)ncc2C#N)c1 [Compound I-109, N-(3-(5-cyano-2-(4-(2-methoxyethoxy)phenylamino)pyrimidin-4-ylamino)phenyl)acrylamide]"
–,< 10,100 to 1000,"C=CC(=O)N(C)Cc1ccc(Oc2nc(Nc3cccc(OCCCN4CCCC4=O)c3)ncc2F)cc1 [Compound I-111, N-(4-(5-fluoro-2-(3-(3-(2-oxopyrrolidin-1-yl)propoxy)phenylamino)pyrimidin-4-yloxy)benzyl)-N-methylacrylamide]"
–,< 10,10 to 100,"C=CC(=O)Nc1cccc(Nc2nc(Nc3ccc4c(c3)N(C(C)=O)CCO4)ncc2F)c1 [Compound I-112, N-(3-(2-(4-acetyl-2,3-dihydrobenzo[1,4]oxazin-6-yl)amino-5-fluoropyrimidin-4-ylamino)phenyl)acrylamide]"
–,< 10,100 to 1000,"C=CC(=O)N(C)Cc1ccc(Nc2nc(Nc3cccc(OC)c3)ncc2F)cc1 [Compound I-113, N-(4-(5-fluoro-2-(3-methoxyphenylamino)pyrimidin-4-ylamino)benzyl)-N-methylacrylamide]"
1000 to 10000,< 10,–,"C=CC(=O)N(C)Cc1ccc(Oc2nc(Nc3ccc(OC)nc3)ncc2F)cc1 [Compound I-117, N-(4-(5-fluoro-2-(6-methoxypyridin-3-ylamino)pyrimidin-4-yloxy)benzyl)-N-methylacrylamide]"
–,10 to 100,100 to 1000,"Cc1cccc(Nc2nc(Nc3cccc(NC(=O)/C=C/CN4C[C@@H](C)N[C@@H](C)C4)c3)ncc2F)c1 [Compound I-119, (E)-4-((3R,5S)-3,5-dimethylpiperazin-1-yl)-N-(3-(5-fluoro-4-(m-tolylamino)pyrimidin-2-ylamino)phenyl)but-2-enamide]"
< 10,< 10,–,"COCCN(C)C/C=C/C(=O)Nc1cccc(Nc2ncc(F)c(Nc3cccc(C)c3)n2)c1 [Compound I-120, (E)-N-(3-(5-fluoro-4-(m-tolylamino)pyrimidin-2-ylamino)phenyl)-4-((2-methoxyethyl)(methyl)amino)but-2-enamide]"
–,< 10,10 to 100,"C=CC(=O)N1CCOc2ccc(Nc3ncc(F)c(Nc4ccc5c(c4)CC(=O)N5)n3)cc21 [Compound I-130, 5-(2-(4-acryloyl-3,4-dihydro-2H-benzo[b][1,4]oxazin-6-ylamino)-5-fluoropyrimidin-4-ylamino)indolin-2-one]"
–,< 10,10 to 100,"C=CC(=O)N1Cc2ccc(Nc3nc(Nc4cccc(OC)c4)ncc3C(F)(F)F)cc2C1 [Compound I-132, 1-(5-(5-trifluoromethyl-2-(3-methoxyphenylamino)pyrimidin-4-yl)amino-1,3-dihydroisoindol-2-yl)2-propen-1-one]"
–,< 10,100 to 1000,"C=CC(=O)N(C)Cc1ccc(Oc2nc(Nc3cccc(OCCCS(C)(=O)=O)c3)ncc2F)cc1 [Compound I-136, N-(4-(5-fluoro-2-(3-(3-(methylsulfonyl)propoxy)phenylamino)pyrimidin-4-yloxy)benzyl)-N-methylacrylamide]"
–,< 10,10 to 100,"C=CC(=O)N1CCOc2ccc(Nc3nc(Nc4ccc(OCCOC)cc4)ncc3F)cc21 [Compound I-141, 1-(6-(5-fluoro-2-(4-(2-methoxyethoxy)phenylamino)pyrimidin-4-ylamino)-2H-benzo[b][1,4]oxazin-4(3H)-yl)prop-2-en-1-one]"
< 10,< 10,–,"C=CC(=O)Nc1cccc(Nc2nc(Nc3cccc(OCCCN4CCCC4=O)c3)ncc2F)c1 [Compound I-144, 4-(3-acrylamidophenylamino)-5-fluoro-2-(3-(3-(2-oxopyrrolidin-1-yl)propoxy)phenylamino)-pyrimidine]"
–,< 10,10 to 100,"C=CC(=O)Nc1cccc(N(C(=O)C=C)c2nc(Nc3ccc(OC)nc3)ncc2C#N)c1 [Compound I-171, N-(3-acrylamidophenyl)-N-(5-cyano-2-(6-methoxypyridin-3-ylamino)pyrimidin-4-yl)acrylamide]"
< 10,< 10,–,"C=CC(=O)Nc1cccc(Nc2nc(Nc3ccc4c(c3)CC(=O)N4)ncc2F)c1 [Compound I-181, N-(3-(5-fluoro-2-(2-oxoindolin-5-ylamino)pyrimidin-4-ylamino)phenyl)acrylamide]"
1000 to 10000,< 10,–,C=CC(=O)N1CCCC(Oc2nc(Nc3ccc(OC)nc3)ncc2F)C1 (centres unmarked) [Compound I-191]
